Data on 18 compounds can be found in US9115093B2, “Substituted bicyclic dihydropyrimidinones and their use as inhibitors of neutrophil elastase activity” (Boehringer Ingelheim International GmbH, priority 2013, dated 2015).

The structures appear in SMILES notation.

For series [1], the target named is T1, neutrophil elastase (Homo sapiens, UniProt P08246).
T1 sequence (P08246 30-247 limits assumed): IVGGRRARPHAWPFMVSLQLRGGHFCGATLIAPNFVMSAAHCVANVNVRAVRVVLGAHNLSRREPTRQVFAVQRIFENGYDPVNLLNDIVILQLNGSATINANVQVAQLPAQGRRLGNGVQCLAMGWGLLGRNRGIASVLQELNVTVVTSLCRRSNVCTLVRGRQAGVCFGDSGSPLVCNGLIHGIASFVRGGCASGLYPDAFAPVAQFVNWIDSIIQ
Nature of the series: Human Neutrophil Elastase Assay. As to conditions: substrate MeOSuc-Ala-Ala-Pro-Val-AMC, pH 7.5, room temperature. On the set-up: purchased Calbiochem 324681. It is filed as biochemical. A digest of the protocol: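 Readout: AMC fluorescence (ex 380, em 460 nm) after 60 min room-temperature reaction with 250 nM MeOSuc-AAPV-AMC, following 15 min compound–enzyme preincubation. Buffer: Tris/NaCl pH 7.5, 0.01% BSA.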

A short description of series [2]: Metabolic stability with human hepatocytes. It is filed as in vitro ADME. As to conditions: human hepatocyte suspension, 1 μM, scaled with well stirred model. The method, then:
Assay for the Determination of Metabolic Stability with Human Hepatocytes
The metabolic degradation of the test compound is assayed in a human hepatocyte suspension. Human hepatocytes (typically cryopreserved) are incubated in an appropriate buffer system (e.g. Dulbecco's modified eagle medium plus 3.5 μg glucagon/500 mL, 2.5 mg insulin/500 mL and 3.75 mg/500 mL hydrocortison) containing 5% species serum. Following a (typically) […] preincubation in an incubator (37° C., 10% CO2), 5 μl of test compound solution (80 μM; from 2 mM stock solution in DMSO diluted 1:25 with medium) are added into 395 μl hepatocyte suspension (cell density in the range 0.25-5*10^6 cells/mL, typically 1*10^6 cells/mL; final concentration of test compound 1 μM, final DMSO concentration […]). The cells are incubated for six hours (incubator, orbital shaker) and samples (25 μl) are taken at 0, 0.5, 1, 2, 4 and 6 hours. Samples are transferred into acetonitrile and pelleted by centrifugation (5 min). The supernatant is transferred to a new 96-deepwell plate, evaporated under nitrogen and resuspended. The decline of parent compound is analyzed by LC-MS/MS.
The intrinsic clearance CL_[…] is calculated as follows: CL_[…]=Dose/AUC=(C0/CD)/(AUD+clast/k)*1′000/60 (C0: initial concentration in the incubation [μM], CD: cell density of vital cells [10^6 cells/mL], AUD: area under the data [μM*h], clast: concentration of last data point [μM], k: slope of the regression line for parent decline [h^−1])
The calculated in vitro hepatic intrinsic clearance can be scaled up to the intrinsic in vivo hepatic clearance and used to predict hepatic in vivo blood clearance (CL) by the use of a is liver model (well stirred model): CL_[…]_INVIVO [ml/min/kg]=(CL_[…] [μL/min/10^6 cells]* hepatocellularity[10^6 cells/g liver]*liver factor[g/kg bodyweight])/1′000 CL[ml/min/kg]=CL_[…]_INVIVO [ml/min/kg]*hepatic blood flow [ml/min/kg]/(CL_[…]_INVIVO [ml/min/kg]+hepatic blood flow [ml/min/kg]) Qh[%]=CL[ml/min/kg]/hepatic blood flow[ml/min/kg]) (Hepatocellularity, human: 120*10^6 cells/g liver; lver factor, human: 25.7 g/kg bodyweight; blood flow, human: 21 ml/(min*kg))
The predicted human hepatic in vivo blood clearance (CL) of selected compounds in the metabolic stability assay described above are listed in Table 16.

For series [3], the target named is T1, neutrophil elastase. Description: Neutrophil elastase inhibitory activity in human plasma. In kind it is biochemical. On the set-up: The stimulated blood is centrifuged to generate the neutrophil elastase enriched plasma; from tissue; host or cells: plasma from zymosan-stimulated citrated whole blood of healthy human donors. The following applies: neutrophil elastase enriched human plasma (zymosan-stimulated blood), substrate MeOSuc-Ala-Ala-Pro-Val-AMC. The method, then:
Assay for the Determination of Neutrophil Elastase Inhibitory Activity in Human Plasma
Citrated blood from human healthy donors is mixed with zymosan suspension and incubated at room temperature. This leads to the stimulation of neutrophils and the release of neutrophil elastase into the plasma. The stimulated blood is centrifuged to generate the neutrophil elastase enriched plasma.
Preparation of Zymosan Working Solution:
• single 45 ml blood sample is taken into a 50 ml tube containing citrate (3.13%, 5 mL) and the tube is gently inverted 4 times. • Immediately after blood sampling, zymosan working solution (5 mL) is added. • After the addition of zymosan working solution, the tubes are capped, mixed gently and incubated at 22° C. for 15 min on a shaker at 20 rpm. • Make 10 ml aliquots after the incubation time. • Centrifuge the 15 ml tubes at 800 g for […] at 4° C. in a Jouan centrifuge. • Harvest the plasma and make 1-5 ml aliquots. • Store the plasma at −80° C.
Various concentrations of the neutrophil elastase inhibitor are incubated with plasma. Subsequently, the enzyme activity is measured using the fluorogenic substrate MeOSuc-Ala-Ala-Pro-Val-AMC (Bachem Cat. No. 1-1270, substrate concentration: 250 μM, pH 7.5, 25 mM TRIS buffer, 250 mM NaCl) in analogous fashion as described for the human neutrophil assay. A dose response curve is generated to calculate the EC50 of the inhibitor. The analysis of the data is performed by the calculation of the percentage of fluorescence in the presence of the test compound compared to the fluorescence of the vehicle control after subtracting the background fluorescence: An inhibitor of the neutrophil elastase enzyme will give values between 100% control (no inhibition) and 0% control (complete inhibition). The human plasma shift of selected compounds can be calculated using the following equation: Human plasma shift=(EC50 in human plasma assay)/(IC50 in human neutrophil elastase assay) The EC50 values of selected compounds in the human plasma assay described above are listed in Table 14.

For orientation: IC50 means the concentration needed to halve the response being measured. A higher IC50 goes with lower potency. For orientation: EC50 means the midpoint of the concentration-response curve. With `CN1C(=O)N(c2cccc(C(F)(F)F)c2)C2=C(C(=O)CCC2)[C@H]1c1ccc(C#N)cc1S(C)(=O)=O` [Example 48, (S)-4-(3-Methyl-2,5-dioxo-1-(3-(trifluoromethyl)phenyl)-1,2,3,4,5,6,7,8-octahydroquinazolin-4-yl)-3-(methylsulfonyl)benzonitrile], it took 1 nM to reach half-maximal inhibition in series [1] (IC50). For the same compound, the “CL (predicted human hepatic in vivo blood clearance)” value in series [2] was 3 mL/min/kg. Besides, the 50% effective concentration (EC50) in series [3] was 1 nM. As for `CS(=O)(=O)c1cc(C#N)ccc1[C@H]1NC(=O)N(c2cccc(C(F)(F)F)c2)C2=C1C(=O)CCC2` (single isomer, unassigned) [Example 18A], in series [2], the “CL (predicted human hepatic in vivo blood clearance)” value is 0 mL/min/kg.

In series [1], `CS(=O)(=O)c1cc(C#N)ccc1[C@@H]1C2=C(CCCC2=O)N(c2cccc(C(F)(F)F)c2)C(=O)N1S(C)(=O)=O` [Example 68, (S)-3-(Methylsulfonyl)-4-(3-(methylsulfonyl)-2,5-dioxo-1-(3-(trifluoromethyl)phenyl)-1,2,3,4,5,6,7,8-octahydroquinazolin-4-yl)benzonitrile] had an IC50 of under 1 nM. In series [2], the “CL (predicted human hepatic in vivo blood clearance)” value was 0 mL/min/kg. Further, a half-maximal effect in series [3] (EC50) was put at 1 nM. In the case of `CS(=O)(=O)c1cc(C#N)ccc1[C@H]1NC(=O)N(c2cccc(C(F)F)c2)C2=C1C(=O)CCC2` (single isomer, unassigned) [Example 19A], the “CL (predicted human hepatic in vivo blood clearance)” value in series [2] was 0 mL/min/kg. On the same count and under the same terms, the value for `CCS(=O)(=O)c1cc(C#N)ccc1[C@H]1NC(=O)N(c2cccc(C(F)(F)F)c2)C2=C1C(=O)CCC2` (single isomer, unassigned) [Example 54A] was 2 mL/min/kg. In series [1], `CN1C(=O)N(c2ccnc(C(F)(F)F)c2)C2=C(C(=O)CCC2)C1c1ccc(C#N)cc1S(C)(=O)=O` (stereo not shown) [Example 64, 4-(3-Methyl-2,5-dioxo-1-(2-(trifluoromethyl)pyridin-4-yl)-1,2,3,4,5,6,7,8-octahydroquinazolin-4-yl)-3-(methylsulfonyl)benzonitrile] had a concentration for half-maximal inhibition (IC50) of 3.6 nM. Also, the “CL (predicted human hepatic in vivo blood clearance)” value in series [2] is 0 mL/min/kg. For the same compound, in series [3], the half-maximal effective concentration (EC50) is 1 nM.

For `CS(=O)(=O)c1cc(C#N)ccc1[C@@H]1C2=C(CCCC2=O)N(c2cccc(C(F)(F)F)c2)C(=O)N1C(N)=O` [Example 75, (S)-4-(4-Cyano-2-(methylsulfonyl)phenyl)-2,5-dioxo-1-(3-(trifluoromethyl)phenyl)-1,2,5,6,7,8-hexahydroquinazoline-3(4H)-carboxamide], in series [1], the 50% inhibitory concentration (IC50) was under 1 nM. In series [3], this compound displayed an EC50 of under 1 nM. Consider `CNC(=O)N1C(=O)N(c2cccc(C(F)(F)F)c2)C2=C(C(=O)CCC2)[C@H]1c1ccc(C#N)cc1S(C)(=O)=O` (single isomer, unassigned) [Example 47A], for which the “CL (predicted human hepatic in vivo blood clearance)” value in series [2] was 0 mL/min/kg. `Cc1nnc(CNC(=O)CN2C(=O)N(c3cccc(C(F)(F)F)c3)C3=C(C(=O)CCC3)C2c2ccc(C#N)cc2)o1` (stereo not shown) [Example 36.35]: in series [1], the IC50 is 7 nM.

In turn, `N#Cc1ccc(C2C3=C(CCCC3=O)N(c3cccc(C(F)(F)F)c3)C(=O)N2CC(=O)N2CC(=O)N3CCCCC3C2)cc1` (stereo not shown) [Example 36.73] registered a 50% inhibitory concentration (IC50) in series [1] of 35.5 nM.

Consider `N#Cc1ccc(C2C3=C(CCCC3=O)N(c3cccc(C(F)(F)F)c3)C(=O)N2CC(=O)N2Cc3ccccc3C2)cc1` (stereo not shown) [Example 36.44], for which, in series [1], the half-inhibitory concentration (IC50) stood at 9.3 nM. Still for that read-out and setting: to `CS(=O)(=O)c1ccc(CNC(=O)N2C(=O)N(c3cccc(C(F)(F)F)c3)C3=C(C(=O)CCC3)C2c2ccc(C#N)cc2)nc1` (stereo not shown) [Example 39.20] belongs under 1 nM; to `CN(C(=O)CN1C(=O)N(c2cccc(C(F)(F)F)c2)C2=C(C(=O)CCC2)C1c1ccc(C#N)cc1)C1CC1` (stereo not shown) [Example 36.4], 2.4 nM; to `COCCNC(=O)N1C(=O)N(c2cccc(C(F)(F)F)c2)C2=C(C(=O)CCC2)C1c1ccc(C#N)cc1` (stereo not shown) [Example 39, 4-(4-Cyanophenyl)-N-(2-methoxyethyl)-2,5-dioxo-1-(3-(trifluoromethyl)phenyl)-1,2,5,6,7,8-hexahydroquinazoline-3(4H)-carboxamide], 1 nM. Still for that read-out and setting: to `COCCOC(=O)N1C(=O)N(c2cccc(C(F)(F)F)c2)C2=C(C(=O)CCC2)C1c1ccc(C#N)cc1` (stereo not shown) [Example 41, 2-Methoxyethyl 4-(4-Cyanophenyl)-2,5-dioxo-1-(3-(trifluoromethyl)phenyl)-1,2,5,6,7,8-hexahydroquinazoline-3(4H)-carboxylate] belongs 9.1 nM; to `N#Cc1ccc(C2C3=C(CCCC3=O)N(c3cccc(C(F)(F)F)c3)C(=O)N2Cc2ccc(C(=O)O)o2)cc1` (stereo not shown) [Example 29, 5-((4-(4-Cyanophenyl)-2,5-dioxo-1-(3-(trifluoromethyl)phenyl)-1,2,5,6,7,8-hexahydroquinazolin-3(4H)-yl)methyl)furan-2-carboxylic acid], 13.7 nM. The same measure, in the same setting: the value for `CS(=O)(=O)c1cc(C#N)ccc1C1C2=C(CCCC2=O)N(c2cccc(C(F)(F)F)c2)C(=O)N1C(=O)NCCCO` (stereo not shown) [Example 47.3] was under 1 nM; that for `COC(=O)N1C(=O)N(c2cccc(C(F)(F)F)c2)C2=C(C(=O)CCC2)C1c1ccc(C#N)cc1` (stereo not shown) [Example 40, Methyl 4-(4-Cyanophenyl)-2,5-dioxo-1-(3-(trifluoromethyl)phenyl)-1,2,5,6,7,8-hexahydroquinazoline-3(4H)-carboxylate] was 9 nM.
